Assay: xn = mol fraction of the nth substance listed
Conditions: 100 kPa, Liquid; for speed of sound: Single path-length method; for mass density: Vibrating tube method

CCCCN(CCCC)CCCC [tributylamine] + CCOC(C)=O
Conditions | mass density, 293.15 K [kg/m3] | mass density, 298.15 K [kg/m3] | mass density, 303.15 K [kg/m3] | mass density, 308.15 K [kg/m3] | mass density, 313.15 K [kg/m3] | speed of sound, 293.15 K [m/s] | speed of sound, 298.15 K [m/s] | speed of sound, 303.15 K [m/s] | speed of sound, 308.15 K [m/s] | speed of sound, 313.15 K [m/s]
x1 = 0.0502 | 886.034 | 880.238 | 874.248 | 868.137 | 862.077 | 1168.6 | 1146.5 | 1124.6 | 1102.3 | 1080.9
x1 = 0.104 | 872.134 | 866.571 | 860.881 | 854.773 | 848.939 | 1172.6 | 1152.6 | 1129.9 | 1108.7 | 1088.3
x1 = 0.2041 | 850.473 | 845.352 | 840.168 | 834.885 | 829.51 | 1182.8 | 1162.8 | 1140.7 | 1119.9 | 1098.8
x1 = 0.3022 | 834.126 | 829.336 | 824.418 | 819.471 | 814.442 | 1193.2 | 1172.8 | 1151.3 | 1131.6 | 1109.3
x1 = 0.402 | 820.855 | 816.274 | 811.568 | 806.892 | 802.143 | 1203.3 | 1182.8 | 1161.7 | 1141.7 | 1120.9
x1 = 0.5017 | 810.036 | 805.655 | 801.215 | 796.734 | 792.21 | 1213.4 | 1194 | 1172.7 | 1152.9 | 1132.9
x1 = 0.6003 | 801.163 | 796.948 | 792.639 | 788.358 | 784.016 | 1223 | 1203.8 | 1182.3 | 1163.6 | 1143.3
x1 = 0.7004 | 793.656 | 789.584 | 785.465 | 781.294 | 777.107 | 1233.6 | 1214.6 | 1193.2 | 1174.6 | 1154.3
x1 = 0.8009 | 787.308 | 783.362 | 779.404 | 775.399 | 771.342 | 1244 | 1224.7 | 1205.4 | 1185.6 | 1166.1
x1 = 0.9011 | 781.785 | 777.942 | 774.089 | 770.192 | 766.343 | 1253.8 | 1234.6 | 1215.4 | 1196.5 | 1177.7
x1 = 1 | 777.006 | 773.283 | 769.552 | 765.811 | 762.061 | 1264.2 | 1245.2 | 1226.2 | 1207.4 | 1188.8

— the NIST ThermoML archive (doi:10.1021/acs.jced.8b01120)
